Laboratory results published in patent US20100179225A1, “POI Prevention” (CYTOKINE PHARMASCIENCES, INC., priority 2008, published 2010).

Tests used:
neutrophils in ME = assay: Neutrophil infiltration into rat ME (myeloperoxidase staining) after IM; format: in vivo; details: rats, 24 hours after IM (FIG. 10)
Description: Animals within examples referring to FIGS. 2-9 were treated 90 minutes before operation with 0 mg/kg (placebo group), or 5 mg/kg bodyweight CNI-1493. In further experiments in rats or mice 0.1, 1.0 or 10 mg/kg CPSI-2364 were administered 90 minutes before surgical procedure via oral route. Oral (p.o.) administration was performed via a gastric tube. CNI-1493 and CPSI-2364 were dissolved in 2.5% mannitol. Placebo and CNI-1493 or CPSI-2364 groups were subdivided in two further groups. One was sham operated (laparotomy without IM) while the other underwent laparotomy followed by IM.
Specimens for histochemical analysis were prepared 24 h after operation and performed on whole mounts of the distal jejunum, as described before in detail (n=5-7 each group) 9. In brief, jejunal segments were opened, immersed in chilled Krebs-Ringer buffer (KRB) and fixed in 100% ethanol for 10 minutes. After washing with KRB, mucosa and submucosa were stripped off and ME whole mounts were used for detection of myeloperoxidase (MPO) positive cells (neutrophils). […] MPO+-cells were counted under a microscope (TE-2000, Nikon, Duesseldorf, Germany) in 5 randomly chosen areas in each specimen.
Example 3 was repeated in rats and mice, i.e. the infiltration of neutrophils within the ME after preoperative p.o. application of the drug was analyzed (FIGS. 10 and 11). […]

JNK/SAPK = JNK/SAPK phosphorylation in ME lysates after intestinal manipulation (immunoblot); format: in vivo, C57BL/6J mice; details: 5 mg/kg i.v. preoperative; after IM
Text: The small bowel of the animals was subjected to a standardized, surgical manipulation (IM) as described previously (Kalff J C, Schraut W H, Simmons R L et al. Surgical manipulation of the gut elicits an intestinal muscularis inflammatory response resulting in postsurgical ileus. Ann Surg 1998; 228:652-663; Wehner S, Schwarz N T, Hundsdoerfer R et al. Induction of IL-6 within the rodent intestinal muscularis after intestinal surgical stress. Surgery 2005; 137:436-446). In brief, after anesthesia a midline abdominal incision was made into the peritoneal cavity. The entire small bowel was eventuated and manipulated with standardized moderate intensity using two moist cotton applicators as described previously. After IM, the laparotomy was closed by one layer of continuous suture, except when probe sampling was conducted within 20 minutes after surgery. […]
p38-MAPK and JNK/SAPK phosphorylation were analyzed in C57BL/6J mice 15, 30 and 60 minutes after IM and in unoperated controls. […] Finally, the sonicated samples were centrifuged at 13.000×g for 10 minutes, and total protein concentration was determined with Pierce BCA protein assay (Perbio, Bonn, Germany). […]
After PAGE, proteins were blotted on Immobilon-P […] PVDF membranes. […] Chemiluminscence signals were detected with a LAS 4000 system (Fujifilm, Duesseldorf, Germany).

MCP-1 mRNA = assay: Proinflammatory gene expression in ME, real-time RT-PCR: MCP-1; format: in vivo, mice; details: 5 mg/kg i.v. preoperative
Text: The small bowel of the animals was subjected to a standardized, surgical manipulation (IM) as described previously (Kalff J C, Schraut W H, Simmons R L et al. Surgical manipulation of the gut elicits an intestinal muscularis inflammatory response resulting in postsurgical ileus. Ann Surg 1998; 228:652-663; Wehner S, Schwarz N T, Hundsdoerfer R et al. Induction of IL-6 within the rodent intestinal muscularis after intestinal surgical stress. Surgery 2005; 137:436-446). In brief, after anesthesia a midline abdominal incision was made into the peritoneal cavity. The entire small bowel was eventuated and manipulated with standardized moderate intensity using two moist cotton applicators as described previously. After IM, the laparotomy was closed by one layer of continuous suture, except when probe sampling was conducted within 20 minutes after surgery. These animals were held in anesthesia and the abdomen was closed by a clamp and protected with sterile gauze. All other animals recovered rapidly from the bowel manipulation procedure. Control animals exclusively underwent laparotomy without eventration and IM (sham operation).
Animals within examples referring to FIGS. 2-9 were treated 90 minutes before operation with 0 mg/kg (placebo group), or 5 mg/kg bodyweight CNI-1493. […]
Proinflammatory gene expression was analyzed in placebo and CNI-1493 (5 mg/kg) treated animals at 1, 3, 6 and 24 hours after operation; n=5-7 each group. […] Total RNA was analyzed in ME specimen that was prepared as described before (Wehner S, Behrendt F F, Lyutenski B N et al. Inhibition of macrophage function prevents intestinal inflammation and postoperative ileus in rodents. Gut 2007; 56:176-185). […] Expression of mRNA was quantified in triplicate by a RT-PCR with gene expression assays for […] (MCP-1; #Mm00441242_m1), CCL3 (MIP-1α #Mm00441258_m1), IL-6 (Assay ID #Mm00446190_ml), TNF-α (#Mm00443258_m1) and ICAM-1 (#Mm00516023_m1). […] Data quantification was performed by the ΔΔCT method. […]

| SMILES | neutrophils in ME compared to the placebo IM group (neutrophils in ME; 0.1 mg/kg bodyweight p.o.) | neutrophils in ME compared to the placebo IM group (neutrophils in ME; p.o. preoperative) | JNK/SAPK phosphorylation (JNK/SAPK) | MCP-1 mRNA expression (fold upregulation) (MCP-1 mRNA; 3 hours after IM) [fold] | MCP-1 mRNA expression (fold upregulation) (MCP-1 mRNA; 6 hours after IM) [fold] | MCP-1 mRNA expression (fold upregulation) (MCP-1 mRNA; 24 hours after IM) [fold] |
| --- | --- | --- | --- | --- | --- | --- |
| C/C(=N\N=C(N)N)c1cc(NC(=O)CCCCCCCCC(=O)Nc2cc(/C(C)=N/N=C(N)N)cc(/C(C)=N/N=C(N)N)c2)cc(/C(C)=N/N=C(N)N)c1.CS(=O)(=O)O.CS(=O)(=O)O.CS(=O)(=O)O.CS(=O)(=O)O [CPSI-2364] | led to the described results | significant reduction of neutrophils |  |  |  |  |
| C/C(=N\N=C(N)N)c1cc(NC(=O)CCCCCCCCC(=O)Nc2cc(/C(C)=N/N=C(N)N)cc(/C(C)=N/N=C(N)N)c2)cc(/C(C)=N/N=C(N)N)c1.Cl.Cl.Cl.Cl [CNI-1493] |  |  | not affected | 142±45 | 317±143 | 92±44 |
